Results as given in US20250154607A1, “ISOTHERMAL AMPLIFICATION OF PATHOGENS” (priority 2021, published 2025).

Legend:
Taq polymerase = Taq polymerase (Thermus aquaticus, UniProt P19821); details: cited from earlier work
RNase A = biological target: T1, RNase A (Bos taurus, UniProt P61823); assay: RNase Alert assay of RNase A activity recovery after SDS/DTT pretreatment; format: biochemical; details: 2 ng RNase A, 2 minutes at 58° C.; 10 mM DTT and/or 0.2% SDS; then 4% βCD
T1 sequence (P61823 27-150): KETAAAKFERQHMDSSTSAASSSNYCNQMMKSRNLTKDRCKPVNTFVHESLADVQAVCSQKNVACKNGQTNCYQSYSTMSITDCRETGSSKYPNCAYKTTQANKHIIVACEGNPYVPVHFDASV
Protocol: 2 ng RNase A was incubated 2 minutes at 58° C. in […] solutions containing either 10 mM DTT+0.2% SDS (+), 0.2% SDS (triangle), 10 mM DTT (square), or neither (solid line) and then the RNase Alert assay was used to study the recovery of any RNase activity upon sequestration of SDS after dissolving lyophilized APA reagents without enzymes but containing RNase Alert substrate and protective agent (4% βCD) with continued incubation and fluorescence data collection at 58° C. In the presence of RNase activity, the RNase alert indicator substrate releases detectable fluorescence. […] FIG. 11A depicts recovery of RNase A activity after identical pretreatment without addition of βCD, in this case monitoring activity in […] of the solution by transfer to an RNase alert “wet” reaction format. […] Thus, as shown here, simultaneous treatment with ionic detergent and reducing agent is required for successful irreversible inactivation under the conditions described herein. […] Without being bound by any particular theory, this may be related to the impact of cyclodextrin and other APA additives on the refolding process. This example also provides further confirmation that the prior art and currently available methods (e.g, employing a reducing agent but no denaturant) are inadequate under these conditions, with an independent, commercially available RNase assay.

9° Nm™ DNA polymerase = 9° Nm™ DNA polymerase (Thermococcus sp., UniProt Q56366, E143D); assay: Order-of-addition assay (APA of S. enterica DNA, SDS and hydroxypropyl β-CD); format: biochemical
Chain of 9° Nm™ DNA polymerase (Q56366 whole entry E143D): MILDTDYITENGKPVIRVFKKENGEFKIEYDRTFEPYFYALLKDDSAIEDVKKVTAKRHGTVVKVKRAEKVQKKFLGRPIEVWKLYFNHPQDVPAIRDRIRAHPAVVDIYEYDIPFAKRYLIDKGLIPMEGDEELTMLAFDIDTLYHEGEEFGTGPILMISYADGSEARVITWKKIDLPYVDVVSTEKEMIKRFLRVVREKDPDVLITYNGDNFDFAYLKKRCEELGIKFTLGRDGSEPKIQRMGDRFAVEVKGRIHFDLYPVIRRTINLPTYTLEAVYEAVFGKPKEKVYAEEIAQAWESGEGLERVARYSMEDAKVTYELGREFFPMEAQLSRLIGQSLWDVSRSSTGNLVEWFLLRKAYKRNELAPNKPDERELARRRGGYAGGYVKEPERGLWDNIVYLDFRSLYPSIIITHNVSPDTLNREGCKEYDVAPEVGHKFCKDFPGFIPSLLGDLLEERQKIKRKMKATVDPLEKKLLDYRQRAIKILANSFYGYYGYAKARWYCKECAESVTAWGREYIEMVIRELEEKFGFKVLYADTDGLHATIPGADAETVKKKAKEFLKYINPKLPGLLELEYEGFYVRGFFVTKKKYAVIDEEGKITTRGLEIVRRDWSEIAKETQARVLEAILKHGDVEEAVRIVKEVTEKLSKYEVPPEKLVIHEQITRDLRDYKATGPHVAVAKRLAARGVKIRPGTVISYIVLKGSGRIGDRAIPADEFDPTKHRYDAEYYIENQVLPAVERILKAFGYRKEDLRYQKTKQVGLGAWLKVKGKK
Protocol: Order-of-addition assay: Detection time dependent on cyclodextrin addition prior to brief interaction of enzymes with SDS. Since SDS rapidly and irreversibly inactivated 9° Nm™ DNA polymerase, when the enzyme is instead simultaneously exposed to SDS and β-CD, the kinetics of complexation of the latter two substances must be very rapid, compared with the rate of interaction between SDS and the enzyme.
FIG. 6 depicts data related to detection of S. enterica DNA target (50,000 copies) by APA reactions in a wet “hot-start” format mediated by CleanAmp™ deoxynucleotides (CAdNTP) containing Tris pH7.6, KCl, (NH4)2SO4, MgSO4, Triton X-100, SYBRI, CAdNTP, 9° Nm™ DNA polymerase, with additions of 0.4% SDS (X), 4% hydroxypropyl β-CD (squares), SDS then immediately β-CD (circles), or β-CD then SDS (solid line) with mixing. Control (ctrl dotted line) was no additions. All samples included DNA target. Isothermal APA was at 68° C., collecting intercalating dye fluorescence every 15 seconds to monitor all exponential DNA amplification. […] Negative controls for each condition without S. enterica DNA confirmed specificity of indicated amplification products (not shown).

Chain of Taq polymerase (P19821 whole entry): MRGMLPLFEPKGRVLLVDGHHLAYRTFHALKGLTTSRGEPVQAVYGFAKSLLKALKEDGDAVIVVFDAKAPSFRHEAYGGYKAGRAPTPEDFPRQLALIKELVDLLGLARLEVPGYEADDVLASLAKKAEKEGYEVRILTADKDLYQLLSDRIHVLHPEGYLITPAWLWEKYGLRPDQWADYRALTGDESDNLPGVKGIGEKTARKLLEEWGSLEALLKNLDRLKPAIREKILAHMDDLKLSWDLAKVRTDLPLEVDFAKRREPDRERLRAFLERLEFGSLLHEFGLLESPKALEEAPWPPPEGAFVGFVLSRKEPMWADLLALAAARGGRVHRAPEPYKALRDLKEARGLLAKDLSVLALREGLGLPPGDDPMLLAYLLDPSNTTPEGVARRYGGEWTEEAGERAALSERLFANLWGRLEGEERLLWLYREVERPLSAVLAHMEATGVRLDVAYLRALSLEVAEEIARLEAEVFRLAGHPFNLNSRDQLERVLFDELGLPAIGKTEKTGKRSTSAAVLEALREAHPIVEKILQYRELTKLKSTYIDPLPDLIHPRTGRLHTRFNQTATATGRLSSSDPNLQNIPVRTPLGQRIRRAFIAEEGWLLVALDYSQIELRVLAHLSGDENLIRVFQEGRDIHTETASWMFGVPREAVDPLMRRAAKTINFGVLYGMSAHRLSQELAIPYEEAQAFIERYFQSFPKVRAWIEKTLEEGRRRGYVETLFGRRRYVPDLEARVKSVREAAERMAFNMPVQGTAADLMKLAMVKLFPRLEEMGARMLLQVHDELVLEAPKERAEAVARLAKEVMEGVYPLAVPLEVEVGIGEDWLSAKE

Question: For CCCCCCCCCCCCOS(=O)(=O)[O-].[Na+] [SDS, sodium dodecyl sulfate], which “SDS concentration with inhibitory effect for PCR with Taq polymerase” value (Taq polymerase) is on record?
Answer: Its value is “greater than 0.01 % (w/v)”.

Question: What about the “Recovery of RNase A activity after pretreatment, with βCD” value (RNase A) of the same compound?
Answer: The value was “virtually full recovery of enzyme activity”.

Question: What about the “Effect on APA amplification” value (9° Nm™ DNA polymerase; 0.4% SDS alone, S. enterica DNA 50,000 copies) of the same compound?
Answer: Its value is “Barrier to amplification”.

Question: What about the “Effect on 9° Nm™ DNA polymerase” value (9° Nm™ DNA polymerase; 0.4% SDS then immediately β-CD (brief exposure)) of the same compound?
Answer: Its value is “sufficient to inactivate”.
